Consider three compounds from patent publication EP0043811A1, “Indolo-naphthyridines and their use as medicaments” (OMNICHEM Société anonyme, priority 1980, dated 1982).

The nature of data set [1]: Acute toxicity (LD50) in mice, intravenous. Particulars: mouse, in vivo, read-out: DL50 iv. An excerpt:
Les composés de l'invention ont été administrés sous forme de chlorhydrate par voie intraveineuse à des souris de souche Charles River. Les doses létales 50 % (DL50) ont été déterminées graphiquement selon la méthode de Lichtfield et Wilcoxon (J. Pharmacol.Exp. Thérap. […]).

Data set [2] concerns souris, de souche Charles River. Kind of data set: Hypobaric anoxia test in mice (survival time). In kind it is in vivo. Particulars: ratio of DL50/DE50 of the product to DL50/DE50 of vincamine; DE50 = dose raising mean survival time by 50 %; p.o. 30 min before test; 190 mm Hg (5,25 % oxygen). The method, then: Des souris de même sexe, de souche Charles River, pesant environ 20 + 2 g sont réparties en trois lots de 10 animaux. Les lots 1 et 2 comportent les animaux traités, c'est à dire ayant reçu la substance à tester de l'invention. Un troisième lot comporte des animaux témoins.
Les composés étudiés sont administrés p.o. 30 minutes avant l'essai. Les animaux sont placés dans une atmosphère appauvrie en oxygène par réalisation d'un vide partiel (190 mm Hg, correspondant à 5,25 % d'oxygène), ces conditions étant obtenues en 30 secondes). On mesure le temps de survie des souris au moyen d'un chronomètre. Les agents capables de favoriser l'oxygénation tissulaire et en particulier cérébrale, entraînent un accroissement du temps de survie et l'on peut exprimer par la dose efficace 50 % (DE50), la dose qui augmente de 50 % le temps de survie moyen des animaux placés dans les conditions décrites ci-dessus.
L'indice vincaminique correspond au rapport de la ^DL50/D^E50 du produit à la DL5ODE50 de la vincamine. Le tableau suivant rassemble les doses léthales et les indices vincaminiques observés pour divers composés de la présente invention.

Data set [3] relates to chien anesthésié au Nembutal. The data set is described as follows: Haemodynamics and cerebral oxygen consumption in the dog anaesthetised with Nembutal. In kind it is in vivo. An excerpt:
Chez le chien anesthésié au Nembutal, les composés de l'invention, en particulier Ib', augmentent les débits sanguins artériels des artères fémorales et vertébrales et stimulent de façon marquée (+ 50 %) la consommation apparente du cerveau en oxygène. L'effet sur la fréquence cardiaque est par ailleurs peu marqué, contrairement au cas de la vincamine.

The subject of data set [4] is ptose palpébrale induite par la réserpine. Kind of data set: Reserpine-induced palpebral ptosis test in mice. In kind it is in vivo, souris. Particulars: mouse. An excerpt: Le canthène Ib s'est en outre révélé très actif au test à la ptose palpébrale induite par la réserpine che la souris. […] La combinaison des propriétés antianoxiques et antidépressives confèrent aux composés de l'invention un intérêt thérapeutique original.

In a further data set the test system is monoamine oxydase. Kind of data set: Monoamine oxidase inhibitor (IMAO) character, method not described.

As to `CCN1CCc2c3n(c4ccccc24)C(O)CCC31` (stereo not shown) [Exemple 2, Hydroxy-6 éthyl-3 1,2,3,3a,4,5 hexahydro 6H indolo (3, 2,1, -de) 1,5 naphtyridine], in data set [1], the LD50 worked out at 21 mg/kg. The ind.vincam. hypobare in data set [2] came out at 2.

On to `CCN1CCc2c3n(c4ccccc24)C=CCC31` (stereo not shown) [Exemple 3, Ethyl-3 tétrahydro-1,2,3,3a 4H indolo (3,2,1-de) 1,5 naphtyridine], for which the LD50 in data set [1] was 46 mg/kg. Also, the ind.vincam. hypobare in data set [2] is on record as 2 (Ib'). For the same compound, the “débits sanguins artériels des artères fémorales et vertébrales” value in data set [3] is given as “augmentent”. In data set [3] (stated in contrast to vincamine), the “effet sur la fréquence cardiaque” value is “peu marqué”. Also, the “test à la ptose palpébrale induite par la réserpine” value in data set [4] is “très actif”. For the same compound, the “caractéristique d'inhibiteur de monoamine oxydase (IMAO)” value in the data set on monoamine oxydase is “aucune caractéristique d'inhibiteur de monoamine oxydase”.

In the case of `CCN1CCc2c3n(c4ccccc24)CCCC31` (stereo not shown) [Exemple 4, Ethyl-3 hexahydro-1,2,3,3a,4,5-6H indolo (3,2,1-de) 1,5 naphtyridine], the LD50 in data set [1] is 14 mg/kg. Also, the ind.vincam. hypobare in data set [2] was found to be 2.
